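The concentration for 50% growth inhibition is given as GI50. TGI marks complete inhibition of growth.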
Columns and labels:
Assay in all cases: NCI tumour cell line growth inhibition, 384-well format
RXF 393 renal = system: RXF 393 renal
UACC-257 melanoma = system: UACC-257 melanoma
HS 578T breast = system: HS 578T breast
OVCAR-3 ovarian = system: OVCAR-3 ovarian
K-562 leukemia = system: K-562 leukemia
SK-OV-3 ovarian = system: SK-OV-3 ovarian
IGROV1 ovarian = system: IGROV1 ovarian
BT-549 breast = system: BT-549 breast
HCT-116 colon = system: HCT-116 colon
SK-MEL-28 melanoma = system: SK-MEL-28 melanoma
OVCAR-4 ovarian = system: OVCAR-4 ovarian
HOP-62 NSCLC = system: HOP-62 NSCLC
EKVX NSCLC = system: EKVX NSCLC
MALME-3M melanoma = system: MALME-3M melanoma
SF-268 CNS = system: SF-268 CNS
NCI-H460 NSCLC = system: NCI-H460 NSCLC
MDA-MB-435 melanoma = system: MDA-MB-435 melanoma
U251 glioblastoma = system: U251 glioblastoma
PC-3 prostate = system: PC-3 prostate
ACHN renal = system: ACHN renal
HT29 colon = system: HT29 colon
HL-60(TB) leukemia = system: HL-60(TB) leukemia
A549 NSCLC = system: A549 NSCLC
TK-10 renal = system: TK-10 renal
CAKI-1 renal = system: CAKI-1 renal
RPMI-8226 leukemia = system: RPMI-8226 leukemia
SW-620 colon = system: SW-620 colon
HOP-92 NSCLC = system: HOP-92 NSCLC

Structure (SMILES): CC(C)NC(=O)OCc1c(COC(=O)NC(C)C)c(-c2ccc(Cl)c(Cl)c2)n2c1SCC2
- TGI (RXF 393 renal): 10.5 µM
- GI50 (UACC-257 melanoma): 10.2 µM
- TGI (UACC-257 melanoma): 22.4 µM
- GI50 (HS 578T breast): 4.85 µM
- TGI (HS 578T breast): 17.3 µM
- GI50 (OVCAR-3 ovarian): 2.99 µM
- TGI (OVCAR-3 ovarian): 14.1 µM
- GI50 (K-562 leukemia): 10.3 µM
- TGI (K-562 leukemia): 22.6 µM
- GI50 (SK-OV-3 ovarian): 3.26 µM
- TGI (SK-OV-3 ovarian): 11.4 µM
- GI50 (IGROV1 ovarian): 1.25 µM
- TGI (IGROV1 ovarian): 4.55 µM
- GI50 (BT-549 breast): 3.92 µM
- TGI (BT-549 breast): 15.3 µM
- GI50 (HCT-116 colon): 4 µM
- TGI (HCT-116 colon): 19.8 µM
- GI50 (SK-MEL-28 melanoma): 12.7 µM
- TGI (SK-MEL-28 melanoma): 26.1 µM
- GI50 (OVCAR-4 ovarian): 3.3 µM
- TGI (OVCAR-4 ovarian): 17.5 µM
- GI50 (HOP-62 NSCLC): 1.89 µM
- TGI (HOP-62 NSCLC): 4.66 µM
- GI50 (EKVX NSCLC): 13.1 µM
- TGI (EKVX NSCLC): 26.7 µM
- GI50 (MALME-3M melanoma): 5.06 µM
- TGI (MALME-3M melanoma): 17.8 µM
- GI50 (SF-268 CNS): 3.18 µM
- TGI (SF-268 CNS): 10.3 µM
- GI50 (NCI-H460 NSCLC): 2.56 µM
- TGI (NCI-H460 NSCLC): 11.4 µM
- GI50 (MDA-MB-435 melanoma): 13 µM
- TGI (MDA-MB-435 melanoma): 25.8 µM
- GI50 (U251 glioblastoma): 5.16 µM
- TGI (U251 glioblastoma): 18.4 µM
- GI50 (PC-3 prostate): 10.8 µM
- TGI (PC-3 prostate): 25.5 µM
- GI50 (ACHN renal): 2.31 µM
- TGI (ACHN renal): 7.85 µM
- GI50 (HT29 colon): 10.4 µM
- TGI (HT29 colon): 25 µM
- GI50 (HL-60(TB) leukemia): 1.27 µM
- TGI (HL-60(TB) leukemia): 2.58 µM
- GI50 (A549 NSCLC): 10.2 µM
- TGI (A549 NSCLC): 23.9 µM
- GI50 (TK-10 renal): 1.63 µM
- TGI (TK-10 renal): 6.15 µM
- GI50 (CAKI-1 renal): 1.48 µM
- TGI (CAKI-1 renal): 3.44 µM
- GI50 (RPMI-8226 leukemia): 1.79 µM
- TGI (RPMI-8226 leukemia): 5.03 µM
- GI50 (SW-620 colon): 5.81 µM
- TGI (SW-620 colon): 19.6 µM
- GI50 (HOP-92 NSCLC): 2.58 µM
- TGI (HOP-92 NSCLC): 11.4 µM

From PubChem BioAssay (NCI)
